Values of other authors as cited in US12492208B2, “Crystal of pyrimidine compound” (TAIHO PHARMACEUTICAL CO., LTD., priority 2020, dated 2025).

Legend:
[1] = non-clinical tests; substrates of p-gp or Bcrp; cited from earlier work
[2] = tested on: brain metastatic cancer; conditions: clinical tests; cited from earlier work

In the case of CCOc1cc2ncc(C#N)c(Nc3ccc(OCc4ccccn4)c(Cl)c3)c2cc1NC(=O)/C=C/CN(C)C [Neratinib], the brain penetration properties [1] is listed as “limited” and the “effects against brain metastatic cancer” value [2] is listed as “sufficient effects of these agents could not be obtained”.
